Data: publication PMC10916400, “Effect of the aggregated protein dye YAT2150 on Leishmania parasite viability” (Antimicrobial Agents and Chemotherapy, 2024)
Residues, ends and D or L forms follow the SMILES beside them.

Experiments:
[1] = system: L. infantum amastigotes; experiment: Amastigote growth inhibition assay (parasite rescue and transformation, RAW 264.7 macrophages); type: cell-based, Leishmania infantum; conditions: in vitro
Method: Compound activity on amastigotes was determined following the parasite rescue and transformation assay ([61]). RAW 264.7 macrophages were seeded in 96-well microtiter plates at 10^5 cells/mL of DMEM supplemented with 10% FBS and 1% penicillin-streptomycin (complete DMEM, DMEMc) in a final volume of 200 µL per well. After an overnight incubation (37°C, 5% CO2) to allow cell adherence, the medium was removed and 10^6 L. infantum promastigotes/mL were added (1:10 macrophage:promastigote ratio) in DMEM supplemented with 2% FBS and 1% penicillin-streptomycin (DMEM 2% FBS). After 24 h, parasites not internalized by macrophages were removed by washing (3×, PBS) and dilutions in DMEM 2% FBS of free or liposome-encapsulated compounds were added. After 48 h, the medium was removed, cells were washed three times with PBS, and 40 µL of 0.05% SDS in complete Schneider’s medium was added; after 40 s, 160 additional µL/well of complete Schneider’s medium was added and plates were incubated at 26°C for another 48 h. Then, resazurin sodium salt was incorporated at a final concentration of 0.00125% and plates were incubated for 24 h more in the same conditions. Afterwards, resorufin fluorescence was measured as above.

[2] = in vitro; type: cell-based; conditions: human umbilical vein endothelial cells; for CC50: 48 h
Method: Human umbilical vein endothelial cells were maintained in M-199 supplemented with 10% fetal bovine serum (FBS) and 1% penicillin-streptomycin at 37°C, 5% CO2, and seeded in 96-well plates at a density of 50,000 cells/mL. After allowing cell adherence for 24 h, the medium was removed, and drugs or nanoformulations were added in M-199 supplemented with 1% penicillin-streptomycin. Plates were incubated for 48 h, and then, the medium in each well was replaced by 100 µL of M-199 containing penicillin-streptomycin and 0.00125% resazurin sodium salt (Sigma-Aldrich Corporation). Plates were incubated for 4 h, and resorufin fluorescence emission was measured (λex/em: 535/590 nm) in a Tecan Infinite 200 PRO equipment (Tecan Trading AG).

[3] = system: L. infantum promastigotes; experiment: microbe, parasite or virus in culture; type: cell-based, Leishmania infantum; conditions: for IC50: L. infantum promastigotes, in vitro; for Selectivity index (CC50/IC50): CC50 in human umbilical vein endothelial cells / IC50 for promastigotes; for growth inhibition: promastigotes, 72 h, 100 µM
Method: L. infantum (MHOM/ES/2016/CATB101) promastigotes were maintained at 26°C in complete Schneider’s medium (Schneider’s insect medium supplemented with 10% FBS, 25 µg/mL gentamycin, 1% penicillin-streptomycin, and 1% sterile human urine, pH 6.7). For growth inhibition assays, promastigotes were used in the logarithmic growth phase, whereas for the infection of macrophages and generation of amastigotes they were used in the stationary phase. Axenic amastigotes were obtained following established protocols ([40], [57][–][59]); briefly, 1 × 10^7 promastigotes/mL in stationary phase were cultured in Schneider’s insect medium supplemented with 20% FBS, 25 µg/mL gentamycin, and 3.9 g/L of 2-(N-morpholino)ethanesulfonic acid, at pH 5.4 and 37°C. After 48 h, the typical rounded morphology of axenic amastigotes and their flagellum shortening could be observed. This culture was used within a week after its preparation.
In 96-well microtiter plates (Nunclon Delta surface; Thermo Fisher Scientific Inc.), serial dilutions (1:2) of the drugs or peptides were performed, either free or loaded in nanoformulations, in 100 µL of complete Schneider’s medium, to which one volume of 2 × 10^6 logarithmic growth-phase L. infantum promastigotes/mL in the same buffer was added. After 48 h, resazurin sodium salt was incorporated at a final concentration of 0.00125% and the plates were incubated at 26°C for another 24 h, when fluorescence from resorufin was measured as described above.

[4] = system: promastigotes; parameters: method as in PMID 16316700; conditions: cited from earlier work
[5] = L. infantum amastigotes in RAW 264.7 macrophages
[6] = Leishmania infantum, RAW264.7, L. infantum amastigotes in RAW 264.7 macrophages

| SMILES | IC50 [1, 5] | CC50 at 48 h [2] | IC50 [3] | IC50 [1, 6] | CC50 [2] | Selectivity index (CC50/IC50) [3] | IC50 ([3]; Leishmania infantum) | other results |
| --- | --- | --- | --- | --- | --- | --- | --- | --- |
| CC1=CC2Cc3nc4cc(Cl)ccc4c(NCCCN(C)CCCNc4c5c(nc6ccccc46)CCCC5)c3C(C1)C2 (stereo not drawn) [HUPNTH] | 1520 ± 660 nM | 3400 ± 1000 nM | 2370 ± 1400 nM |  |  |  |  |  |
| COc1cc2c(cc1OC)C(=O)C(CC1CCN(CCCNc3c4c(nc5cc(Cl)ccc35)CCCC4)CC1)C2 (stereo not drawn) [DONE3TCl] |  |  |  | 620 ± 80 nM | 12600 ± 2200 nM | 6.0 | 2090 ± 400 nM |  |
| CC1=CC2Cc3nc4cc(Cl)ccc4c(NCCCCCCCCNc4c5c(nc6ccccc46)CCCC5)c3C(C1)C2 (stereo not drawn) [HUP8TH] |  |  |  | 1630 ± 340 nM | 4900 ± 1300 nM | 4.9 | 990 ± 470 nM |  |
| CC[C@H](C)[C@H](NC(=O)[C@H](C)NC(C)=O)C(=O)N[C@@H](CO)C(=O)N[C@H](C(=O)N[C@@H](Cc1ccccc1)C(=O)N[C@@H](Cc1ccccc1)C(=O)N[C@@H](CC(C)C)C(=O)N[C@@H](CCC(=O)O)C(=O)N1CCC[C@H]1C(N)=O)C(C)C (Ac-AISVFFLEP-NH2) |  |  |  |  |  |  |  | growth inhibition [3]: 0% |
| CC1=CC2Cc3nc4cc(Cl)ccc4c(NCCCCCCCNc4c5c(nc6ccccc46)CCCC5)c3C(C1)C2 (stereo not drawn) [HUP7TH] | 920 ± 380 nM | 7800 ± 3400 nM | 1230 ± 420 nM |  |  |  |  |  |
| CC[C@H](C)[C@H](NC(=O)[C@H](Cc1ccccc1)NC(=O)[C@H](CC(N)=O)NC(=O)[C@H](CC(=O)O)NC(C)=O)C(=O)N[C@@H](Cc1ccccc1)C(=O)NCC(=O)N[C@@H](CCC(N)=O)C(N)=O [DNFIFGQ, Acetyl-DNFIFGQ-amide] (Ac-DNFIFGQ-NH2) |  |  |  |  |  |  |  | growth inhibition [3]: 2% |
| CC1=CC2Cc3nc4ccccc4c(NCCCCCCCCCCNc4c5c(nc6ccccc46)CCCC5)c3C(C1)C2 (stereo not drawn) [HUPH10TH] | 970 ± 210 nM | 3400 ± 100 nM | 720 ± 110 nM |  |  |  |  |  |
| C[C@@H]1[C@H](O)[C@@H](C)/C=C/C=C/C=C/C=C/C=C/C=C/C=C/[C@H](O[C@@H]2O[C@H](C)[C@@H](O)[C@H](N)[C@@H]2O)C[C@@H]2O[C@](O)(C[C@@H](O)C[C@@H](O)[C@H](O)CC[C@@H](O)C[C@@H](O)CC(=O)O[C@H]1C)C[C@H](O)[C@H]2C(=O)O [Amphotericin B] |  |  |  |  |  |  |  | IC50 [4]: 40 nM |
| CC1=CC2Cc3nc4cc(Cl)ccc4c(NCCCN(C)CCCNc4c5c(nc6cc(Cl)ccc46)CCCC5)c3C(C1)C2 (stereo not drawn) [HUPNTCl] |  |  |  | 1040 ± 210 nM | 6300 ± 500 nM | 3.1 | 2030 ± 190 nM |  |
